Reference: patent US11858972B2, “Micropeptides and uses thereof” (FUNDACIÓ PRIVADA INSTITUT D'INVESTIGACIÓ ONCOLÒGICA DE VALL …, priority 2018, dated 2024)
*1 amine or outer side, *2 acyl side, *3 side chain or, on linkers, in order; H or OH if unused. Where a SMILES comes first, the peptide text is derived from it. Bridges are numbered along the chain shown (N, C = ends). Roman numbers before positions name the chains, in order. [ ]: non-standard residue; d: D form. Actinocin(9to1) = Cc1c2oc3c(C)ccc(C(=O)[*:1])c3nc-2c(C(=O)[*:2])c(N)c1=O; NMeV = CN[C@H](C(=O)O)C(C)C; Sar = CNCC(=O)O

What was measured:
Type in all cases: cell-based, human
[1] = tested on: SEQ ID NO:1 in HCT116 and A549 cells; experiment: SEQ ID NO:1 expression (qPCR, Western Blot) after drug treatment, wild-type p53 cells; settings: cells with wild-type p53 (HCT116 and A549); Doxorubicin 1 μM, Actinomycin D 1 nM, Nutlin-3a 10 μM
Description: (§1) FIG. 10. SEQ ID NO: 1 is induced by genotoxic stress in a p53-dependent manner. HCT116, HCT116 p53KO, A549 and BxPC3 were treated with Doxorubicin (1 μM) or Actinomycin D (1 nM) and Nutlin-3a (10 μM). SEQ ID NO: 1 transcriptional levels were measured by qPCR in A549 and HCT116 (A) and in HCT116 p53KO and BxPC-3 (B). mRNA expression is shown relative to the not treated control. SEQ ID NO: 1 protein was measured by Western Blot analysis using a custom-made anti-SEQ ID NO: 1 antibody in A549 and HCT116 (A) and in HCT116 p53KO and BxPC-3 (B). (C) Immunostaining showing the upregulation of SEQ ID NO: 1 in A549 cells using a custom-made anti-SEQ ID NO: 1 antibody upon Doxorubicin treatment.
(§2) Doxorubicin, Actinomycin D and Nutlin-3a were purchased from Sigma-Aldrich. Doxorubicin was used at 1 μM, Actinomycin D was used at […] and Nutlin-3a was used at 10 μM in drug treatment experiments.
(§3) Total RNA was extracted with Trizol® and treated with TURBO™ DNase following provider's recommendations. 1 μg of RNA was retrotranscribed using iScript™ cDNA Synthesis Kit (BioRad). Gene expression was analysed by quantitative real time PCR using PowerUp SYBR Green Master Mix (Thermo Fisher Scientific) in the 7900HT Fast Real-Time PCR System (Applied Biosystems). Cycle threshold (Ct) values were normalized to GAPDH.
(§4) Cells pellets (4-5*10^6 cells) were homogenized in medium-salt lysis buffer (150 mM NaCl, 50 mM Tris pH 8, 1% NP40 and protein inhibitors cocktail). 50 μg of protein was loaded per lane in a 12% acrylamide gel and electrophoresed in Tris-Glycine SDS Running Buffer. The following antibodies were used: Anti-HA-Tag (Abcam, 1:5000), Anti-p53 (Santa Cruz, 1:1000), Anti-p21 (Thermo Fisher, 1:1000), Anti-GAPDH (Thermo Fisher, 1:5000).

SEQ ID NO 3 in HCT116 = experiment: SEQ ID NO: 3 mRNA levels by RT-qPCR after drug treatment in HCT116; settings: Nutlin3a 10 μM 48 h, Doxorubicin 1 μM 24 h
Description: FIG. 25. […] (A) HCT116 and HCT116 p53KO cells were treated with MDM2 inhibitor Nutlin3a (10 μM) during 48 h. […] SEQ ID NO: 3 mRNA levels were tested by RT-qPCR. mRNA levels are presented relative to GAPDH reference gene. Bars represent average of n=3 technical replicates±SD.
as §2, §3

[2] = tested on: SEQ ID NO:1 in HCT116 p53KO and BxPC-3 cells; experiment: SEQ ID NO:1 expression (qPCR, Western Blot) after drug treatment, p53 altered cells; settings: p53 status altered: HCT116 p53KO, BxPC-3 (mutant p53); Doxorubicin 1 μM, Actinomycin D 1 nM, Nutlin-3a 10 μM
Description: as §1, §2, §3, §4

[3] = tested on: SEQ ID NO 3 in HCT116 p53 KO; experiment: SEQ ID NO: 3 mRNA levels by RT-qPCR after drug treatment in HCT116 p53 knock-out; settings: Nutlin3a 10 μM 48 h, Doxorubicin 1 μM 24 h
Description: FIG. 25. […] (A) HCT116 and HCT116 p53KO cells were treated with MDM2 inhibitor Nutlin3a (10 μM) during 48 h. SEQ ID NO: 3 transcriptional levels were tested by RT-qPCR. mRNA levels are normalized to untreated control (B) HCT116 and HCT116 p53KO cells were treated with genotoxic agent Doxorubicin (1 μM) during 24 h. SEQ ID NO: 3 mRNA levels were tested by RT-qPCR. mRNA levels are presented relative to GAPDH reference gene. Bars represent average of n=3 technical replicates±SD.
as §2, §3

SMILES | expression of SEQ ID NO:1 (mRNA and protein levels) [1] | SEQ ID NO 3 transcriptional levels (SEQ ID NO 3 in HCT116) | expression of SEQ ID NO:1 (mRNA and protein levels) [2] | SEQ ID NO 3 transcriptional levels [3]
COc1cccc2c1C(=O)c1c(O)c3c(c(O)c1C2=O)C[C@@](O)(C(=O)CO)C[C@@H]3O[C@H]1C[C@H](N)[C@H](O)[C@H](C)O1 [Doxorubicin] | transcriptional and translational upregulation | upregulated | do not shown the same response | upregulation was impaired
COc1ccc(C2=N[C@@H](c3ccc(Cl)cc3)[C@@H](c3ccc(Cl)cc3)N2C(=O)N2CCNC(=O)C2)c(OC(C)C)c1 [Nutlin-3a] | transcriptional and translational upregulation | upregulated | do not shown the same response | upregulation was impaired
Cc1c2oc3c(C)ccc(C(=O)N[C@@H]4C(=O)N[C@H](C(C)C)C(=O)N5CCC[C@H]5C(=O)N(C)CC(=O)N(C)[C@@H](C(C)C)C(=O)O[C@@H]4C)c3nc-2c(C(=O)N[C@@H]2C(=O)N[C@H](C(C)C)C(=O)N3CCC[C@H]3C(=O)N(C)CC(=O)N(C)[C@@H](C(C)C)C(=O)O[C@@H]2C)c(N)c1=O [Actinomycin D] (I: T[dV]P[Sar][NMeV] / II: T[dV]P[Sar][NMeV]; ester I:1-I:C, II:1-II:C; linker I:N-II:N via Actinocin(9to1)) | transcriptional and translational upregulation |  | do not shown the same response | 
